Measurements as given in patent publication US20200390729A1, “OPHTHALMIC TOPICAL COMPOSITION COMPRISING DOBESILIC ACID FOR TREATING DISEASES OF THE POSTERIOR SEGMENT OF THE EYE” (LABORATORIOS SALVAT, S.A., priority 2017, published 2020).
Read-outs that look alike come from different tables or passages of the source.

Assays:
[1] = Ocular distribution of etamsylate following topical ocular single dose in rats; type: in vivo, Sprague Dawley (SD) rat; conditions: Sprague-Dawley, rat
Method: (§1) Bioanalysis of CDO was performed depending on the type of matrix. In the case of plasma, proteins were precipitated using methanol. In the case of tissues, samples were grinded in a Mini Bead Beater using zirconium beads and methanol/water (1:1) (v/v) as solvent. After centrifugation, samples were analyzed by UPLC-MS/MS.
(§2) Chromatographic separation was carried out using an Acquity CSH Fluoro Phenyl column (1.7 μm, 50×2.1 mm). Mobile phase consisted of a gradient using 0.1% formic acid in water and acetonitrile from 5% to 45% in 4.5 min at a flow rate of 0.6 ml/min.
(§3) With regard to the mass spectrometric detection, the electrospray ionization source worked to record negative ions. Multiple Reaction Monitoring (MRM) acquisition mode of the deprotonated molecular ions was performed. The transition monitored for CDO was m/z 189.0→80.1 with a cone voltage of 45 V and collision energy of 25 eV.
At 15, 60 and 180 minutes post-administration, animals were euthanized and ocular tissues including retina, and optic nerve were collected.
As described in Example 2.

[2] = tested on: egg chorioallantoic membrane (CAM); assay: Ocular irritation assay (HET-CAM); design: species or system White Leghorn chicken eggs; conditions: 100 mg/ml, CAM observed for 5 minutes
Source text: The HET-CAM is an alternative method to the Draize Rabbit Eye Test which mimics vascular changes in the chorioallantoic membrane, an analog for ocular conjunctiva, which can be used to determine the potential irritancy of a test substance. This method is based on that described in Hen's Egg Test-Chorioallantoic Membrane (HET-CAM) Test Method (ICCVAM-Recommended Test Method Protocol, NIH Publication No. 10-7553—Published 2010)
Fertilized white SPF (special pathogen free) White Leghorn chicken eggs were incubated at 37° C. and 60% humidity up to day 10. After determination of the viability of the embryo, a rectangular window was removed from the shell directly over the air cell and the egg membrane was carefully moistened with 2-3 ml 0.9% saline. After returning to the incubator for 30 minutes, the inner membrane was removed and the test substance was applied to the CAM membrane with a pipette. Eggs were observed continuously for 5 minutes for the appearance of lysis, hemorrhage and/or coagulation and an irritation score (IS) was determined following the ICCVAM-Recommended Test Method Protocol (NIH Publication No. 10-7553-Published 2010) guideline.

[3] = tested on: oxidized glutathione (GSSG); assay: Antioxidant capacity: GSSG in homogenized retinas, streptozotocin diabetic retinopathy model; type: in vivo, SD male rats; conditions: diabetic rats, CDO 10 mg/ml topical 10 μl/eye TID 28 days; P<0.01 group II vs. group III
Method: Diabetes was induced in SD male rats by single intraperitoneal injection of streptozotocin (STZ) at 60 mg/kg body weight in citrate buffer (pH 4.5). Seven days after STZ administration, blood glucose was measured and the level of 250 mg/dl was considered the threshold value to consider diabetes induction. Ophthalmic treatment with CDO at 10 mg/ml (topical instillation of 10 μl/eye) was initiated once hyperglycemia was confirmed and continued for 28 days three times a day (TID). Rats were randomly divided in 3 groups: I. Control (non-diabetic), II. Diabetic rats with no treatment and III. Diabetic rats with CDO at 10 mg/ml.
At day 29 CDO was instilled a single time at 10 mg/ml in the group III, rats were euthanized and retinas were collected 15 minutes post-administration.
The antioxidant capacity was evaluated by determining the concentrations of Glutathione disulfide (GSSG) or oxidized glutathione in the homogenized retinas. Tissues were collected at day 29 and homogenized in PBS pH 6-7 containing 1 mM EDTA. After centrifugation at 10000 rpm, an aliquot of the supernatant was diluted in 0.1% formic acid and analyzed by UPLC-MS/MS. […]
With regard to the mass spectrometric detection, the electrospray ionization source worked to record negative ions. […] The transition monitored for GSSG was m/z 611.2→306.2 with a cone voltage of 45 V and collision energy of 25 eV.

[4] = Ocular distribution of CDO in rabbits, single dose topical ocular vs. oral; type: in vivo, New Zealand White rabbit; conditions: for concentration at 0.25 h / concentration at 1 h / concentration at 3 h / concentration at 6 h: New Zealand White
Method: In New Zealand White rabbit, weighing approximately 1.8 kg, CDO was administered by topical ocular instillation (33 μl/eye) at 10 mg/ml (composition 2 of Example 1), at 100 mg/ml (composition 5 of Example 1) or by oral gavage at 25 mg/kg in aqueous solution (from composition 1 of Example 1). At 15, 60, 180 and 360 minutes post-administration, animals were euthanized and plasma and ocular tissues including retina/choroid and optic nerve were collected.
as §1, §2, §3

[5] = Ocular tolerability of CDO in rats, clinical eye evaluation; type: in vivo, Diabetic SD male rats; conditions: CDO 100 mg/ml administered topically
Method: Diabetic SD male rats were treated with CDO compositions 2 and 5 of Example 1 for 28 days three times a day (topical instillation of 10 μl/eye). Clinical evaluation of the eye appearance was performed thorough the study.

[6] = optic nerve, 0.126 mg, read-out: CDO μg/g tissue Optic nerve
[7] = optic nerve, 1.26 mg, read-out: CDO μg/g tissue Optic nerve
[8] = retina, 0.126 mg, read-out: CDO μg/g tissue Retina
[9] = retina, 1.26 mg, read-out: CDO μg/g tissue Retina
[10] = optic nerve, rabbit, Oral 25 mg/Kg = 45 mg, read-out: CDO μg/g tissue Optic nerve
[11] = optic nerve, rabbit, Topical eye administration 10 mg/ml = 0.3 mg, read-out: CDO μg/g tissue Optic nerve
[12] = optic nerve, rabbit, Topical eye administration 100 mg/ml = 3.3 mg, read-out: CDO μg/g tissue Optic nerve
[13] = retina/choroid, rabbit, Oral 25 mg/Kg = 45 mg, read-out: CDO μg/g tissue Retina/Choroid
[14] = retina/choroid, rabbit, Topical eye administration 10 mg/ml = 0.3 mg, read-out: CDO μg/g tissue Retina/Choroid
[15] = retina/choroid, rabbit, Topical eye administration 100 mg/ml = 3.3 mg, read-out: CDO μg/g tissue Retina/Choroid

With `O=S(=O)(O)c1cc(O)ccc1O` [CDO, Calcium dobesilate monohydrate] the concentration at 0.25 h [1, 6] was 36.5 µg/g, the concentration at 1 h [1, 6] was 8.13 µg/g and the concentration at 3 h [1, 6] was 2.32 µg/g. The concentration at 0.25 h [1, 7] was 25.2 µg/g, the concentration at 1 h [1, 7] was 15.8 µg/g and the concentration at 3 h [1, 7] was 2.67 µg/g. For the same compound, the concentration at 0.25 h [1, 8] was 4.39 µg/g, the concentration at 1 h [1, 8] was 3.48 µg/g and the concentration at 3 h [1, 8] was 0.27 µg/g. The concentration at 0.25 h [1, 9] was 4.05 µg/g, the concentration at 1 h [1, 9] was 2.42 µg/g and the concentration at 3 h [1, 9] was 1.56 µg/g. The HET-CAM irritation characterization [2] was “not irritating”, the “HET-CAM lysis, haemorrhage or coagulation processes” value [2] was “did not trigger any lysis, haemorrhage or coagulation processes” and the “retinal concentrations of GSSG” value [3] was “return concentrations of GSSG at the same level as the control group”. For the same compound, the concentration at 0.25 h [4, 10] was 0.74 µg/g, the concentration at 1 h [4, 10] was 1.61 µg/g and the concentration at 3 h [4, 10] was 0.49 µg/g. It also gave a concentration at 6 h [4, 10] of 0.1 µg/g, a concentration at 0.25 h [4, 11] of 0.23 µg/g and a concentration at 1 h [4, 11] of 0.76 µg/g. For the same compound, the concentration at 3 h [4, 11] was 0.65 µg/g, the concentration at 6 h [4, 11] was 0.45 µg/g and the concentration at 0.25 h [4, 12] was 14.4 µg/g. It also gave a concentration at 1 h [4, 12] of 22.9 µg/g, a concentration at 3 h [4, 12] of 4.5 µg/g and a concentration at 6 h [4, 12] of 1.92 µg/g. It also gave a concentration at 0.25 h [4, 13] of 0.43 µg/g, a concentration at 1 h [4, 13] of 0.95 µg/g and a concentration at 3 h [4, 13] of 0.28 µg/g. It also gave a concentration at 6 h [4, 13] of 0.12 µg/g, a concentration at 0.25 h [4, 14] of 0.27 µg/g and a concentration at 1 h [4, 14] of 0.29 µg/g. It also gave a concentration at 3 h [4, 14] of 0.16 µg/g, a concentration at 6 h [4, 14] of 0.11 µg/g and a concentration at 0.25 h [4, 15] of 7.88 µg/g. It also gave a concentration at 1 h [4, 15] of 6.41 µg/g, a concentration at 3 h [4, 15] of 3.47 µg/g and a concentration at 6 h [4, 15] of 1.14 µg/g. For the same compound, the “CDO amounts in target tissues (optic nerve and retina choroids) 6 hours after topical ocular administration” value ([4]; rabbit, 6 hours after topical ocular administration) was “could be detected”, the “values of CDO in target tissues, topical vs. single oral dose” value ([4]; rabbits, topical eye single low dose 0.3 mg vs oral 45 mg) was “equivalent to those of a single oral dose (45 mg)” and the “levels of the drug in target tissues, topical vs. single oral dose” value ([4]; rabbits, topical single dose CDO 3.3 mg vs single oral dose) was “higher levels of the drug are detected than those obtained following a single oral dose”. For the same compound, the “tolerance after topical administration” value [5] was “good tolerance”.
